Assay [1] concerns the target human GLP-1 receptor (hGLP-1R) (Homo sapiens, UniProt P43220). The assay is described as follows: cAMP production (HTRF) in CHO cells expressing hGLP-1R. Particulars: for EC50: Table 6, peptides modified at position 17, cAMP in CHO hGLP-1R cells, geometric mean, read-out: hGLP-1R EC50; for % Relative Potency Ratio: Table 6, % GLP-1R activity relative to GLP-1 / % GlucR activity relative to glucagon. On the set-up: expressed in transfected cells. It counts as cell-based. In a few lines: (§1)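 Cells were resuspended in assay buffer at batch-optimized density, typically 1×10^5 cells/mL for hGLP-1R and 2×10^5 cells/mL for hGCGR. After 30 min incubation at room temperature with compound, cAMP was measured by two-step HTRF. EC50 values came from 4-parameter logistic fits of % Delta F.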
Background: Cyclic AMP is a second messenger, typically raised through Gs and lowered through Gi signalling.

In assay [2] the target is human glucagon receptor (hGCGR) (Homo sapiens, UniProt P47871). The assay is described as follows: cAMP production (HTRF) in CHO cells expressing hGCGR. Particulars: Table 6, peptides modified at position 17; cAMP in CHO hGCGR cells; geometric mean; read-out: hGluc-R EC50. It is filed as cell-based. Details: expressed in transfected cells. The essentials:
as §1

Starred links: 1 amine or outer side, 2 acyl side, 3 side chain; linkers in the order of their positions; H or OH if unused. Non-standard residues stand in square brackets, D forms with d. Residues, ends and D or L forms follow the SMILES beside them. Groups on a side chain read outwards from the residue. *: point of attachment. C20 diacid = O=C(O)CCCCCCCCCCCCCCCCCCC(=O)*; C18 diacid = O=C(O)CCCCCCCCCCCCCCCCC(=O)*; γGlu = O=C(O)[C@H](CCC(=O)[*:2])N[*:1]; αMeF = C[C@](N)(Cc1ccccc1)C(=O)O; AEEA = NCCOCCOCC(=O)O; Aib = CC(C)(N)C(=O)O

Sequence of human GLP-1 receptor (hGLP-1R) (P43220 24-463): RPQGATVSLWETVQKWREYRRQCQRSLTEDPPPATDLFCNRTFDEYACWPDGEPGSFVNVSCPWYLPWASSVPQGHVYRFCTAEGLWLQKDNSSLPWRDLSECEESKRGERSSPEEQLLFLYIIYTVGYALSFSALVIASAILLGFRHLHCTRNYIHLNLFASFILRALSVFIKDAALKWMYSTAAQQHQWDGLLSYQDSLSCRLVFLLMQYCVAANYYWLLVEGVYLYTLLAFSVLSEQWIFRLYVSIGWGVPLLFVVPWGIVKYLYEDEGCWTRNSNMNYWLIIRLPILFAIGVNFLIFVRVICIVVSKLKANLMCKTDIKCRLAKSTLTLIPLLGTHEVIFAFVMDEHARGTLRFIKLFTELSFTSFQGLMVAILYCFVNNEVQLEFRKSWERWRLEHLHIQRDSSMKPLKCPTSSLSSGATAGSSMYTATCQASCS
Sequence of human glucagon receptor (hGCGR) (P47871 26-477): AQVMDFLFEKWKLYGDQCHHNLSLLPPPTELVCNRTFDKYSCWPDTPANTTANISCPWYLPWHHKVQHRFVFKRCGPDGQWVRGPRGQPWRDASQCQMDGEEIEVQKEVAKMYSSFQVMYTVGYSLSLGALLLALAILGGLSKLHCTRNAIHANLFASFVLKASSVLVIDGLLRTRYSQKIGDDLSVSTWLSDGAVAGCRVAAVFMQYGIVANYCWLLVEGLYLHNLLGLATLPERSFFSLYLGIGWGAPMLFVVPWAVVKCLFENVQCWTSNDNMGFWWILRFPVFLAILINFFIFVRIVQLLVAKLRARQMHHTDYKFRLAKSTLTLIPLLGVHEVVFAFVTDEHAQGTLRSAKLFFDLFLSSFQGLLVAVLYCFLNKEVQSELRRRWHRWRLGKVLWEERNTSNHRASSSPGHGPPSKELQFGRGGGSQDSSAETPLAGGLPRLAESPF

For `CC(C)C[C@H](NC(=O)[C@H](CC(C)C)NC(=O)[C@H](Cc1c[nH]c2ccccc12)NC(=O)[C@H](CCCNC(=N)N)NC(=O)[C@@H](NC(=O)[C@](C)(Cc1ccccc1)NC(=O)[C@H](CC(=O)O)NC(=O)[C@H](CCC(N)=O)NC(=O)[C@H](C)NC(=O)[C@H](CCCNC(=N)N)NC(=O)[C@H](CCCCNC(=O)COCCOCCNC(=O)COCCOCCNC(=O)CC[C@H](NC(=O)CCCCCCCCCCCCCCCCC(=O)O)C(=O)O)NC(=O)[C@@H](NC(=O)[C@H](CC(=O)O)NC(=O)[C@H](CC(C)C)NC(=O)[C@](C)(Cc1ccccc1)NC(=O)[C@H](CCCCN)NC(=O)[C@H](CO)NC(=O)[C@@H](NC(=O)[C@H](CC(=O)O)NC(=O)[C@H](CO)NC(=O)[C@@H](NC(=O)[C@](C)(Cc1ccccc1)NC(=O)[C@@H](NC(=O)CNC(=O)[C@H](CCC(N)=O)NC(=O)C(C)(C)NC(=O)[C@@H](N)Cc1c[nH]cn1)[C@@H](C)O)[C@@H](C)O)C(C)C)[C@@H](C)O)C(C)C)C(=O)N[C@@H](C)C(=O)NC(C)(C)C(=O)NCC(N)=O` [Peptide 512] (H-H[Aib]QGT[αMeF]TSDVSK[αMeF]LDTK([AEEA-AEEA-γGlu-C18 diacid])RAQD[αMeF]VRWLLA[Aib]G-NH2; N-terminus assumed), in assay [1], the 50% effective concentration (EC50) (commonly the concentration giving half of the maximal effect) was found to be 0.159 nM and the “% Relative Potency Ratio” value is reported as 28.7. Moreover, the concentration for a half-maximal effect (EC50) in assay [2] turned out to be 2.31 nM.

As for `CC(C)C[C@H](NC(=O)[C@H](CC(C)C)NC(=O)[C@H](Cc1c[nH]c2ccccc12)NC(=O)[C@H](CCC(N)=O)NC(=O)[C@@H](NC(=O)[C@](C)(Cc1ccccc1)NC(=O)[C@H](CC(=O)O)NC(=O)[C@H](CCCNC(=N)N)NC(=O)[C@H](C)NC(=O)[C@H](CCCNC(=N)N)NC(=O)[C@H](CCCCNC(=O)COCCOCCNC(=O)COCCOCCNC(=O)CC[C@H](NC(=O)CCCCCCCCCCCCCCCCC(=O)O)C(=O)O)NC(=O)[C@@H](NC(=O)[C@H](CC(=O)O)NC(=O)[C@H](CC(C)C)NC(=O)[C@](C)(Cc1ccccc1)NC(=O)[C@H](CCCCN)NC(=O)[C@H](CO)NC(=O)[C@@H](NC(=O)[C@H](CC(=O)O)NC(=O)[C@H](CO)NC(=O)[C@@H](NC(=O)[C@](C)(Cc1ccccc1)NC(=O)[C@@H](NC(=O)CNC(=O)[C@H](CCC(N)=O)NC(=O)C(C)(C)NC(=O)[C@@H](N)Cc1c[nH]cn1)[C@@H](C)O)[C@@H](C)O)C(C)C)[C@@H](C)O)C(C)C)C(=O)N[C@@H](C)C(=O)NC(C)(C)C(=O)NCC(N)=O` [Peptide 513] (H-H[Aib]QGT[αMeF]TSDVSK[αMeF]LDTK([AEEA-AEEA-γGlu-C18 diacid])RARD[αMeF]VQWLLA[Aib]G-NH2), in assay [1], the EC50 was determined as 0.0938 nM and the “% Relative Potency Ratio” value was 28.3. In addition, in assay [2], the EC50 was determined as 1.34 nM.

For the compound `CC(C)C[C@H](NC(=O)[C@H](Cc1c[nH]c2ccccc12)NC(=O)[C@H](CCC(N)=O)NC(=O)[C@@H](NC(=O)[C@H](Cc1ccccc1)NC(=O)[C@H](CC(=O)O)NC(=O)[C@H](CCCNC(=N)N)NC(=O)[C@H](C)NC(=O)[C@H](C)NC(=O)[C@H](CCCCNC(=O)COCCOCCNC(=O)COCCOCCNC(=O)CC[C@H](NC(=O)CCCCCCCCCCCCCCCCC(=O)O)C(=O)O)NC(=O)[C@@H](NC(=O)[C@H](CC(=O)O)NC(=O)[C@H](CC(C)C)NC(=O)[C@](C)(Cc1ccccc1)NC(=O)[C@H](CCCCN)NC(=O)[C@H](CO)NC(=O)[C@@H](NC(=O)[C@H](CC(=O)O)NC(=O)[C@H](CO)NC(=O)[C@@H](NC(=O)[C@H](Cc1ccccc1)NC(=O)[C@@H](NC(=O)CNC(=O)[C@H](CCC(N)=O)NC(=O)C(C)(C)NC(=O)[C@@H](N)Cc1c[nH]cn1)[C@@H](C)O)[C@@H](C)O)C(C)C)[C@@H](C)O)C(C)C)C(=O)N[C@@H](CC(C)C)C(=O)N[C@@H](CCC(=O)O)C(=O)NC(C)(C)C(=O)NCC(N)=O` [Peptide 514] (H-H[Aib]QGTFTSDVSK[αMeF]LDTK([AEEA-AEEA-γGlu-C18 diacid])AARDFVQWLLE[Aib]G-NH2; N-terminus assumed), in assay [1], the concentration for a half-maximal effect (EC50) amounted to 0.0767 nM and the “% Relative Potency Ratio” value is given as 35.4. In assay [2], the EC50 was 1.37 nM.

For `CC(C)C[C@H](NC(=O)[C@H](Cc1c[nH]c2ccccc12)NC(=O)[C@H](CCC(N)=O)NC(=O)[C@@H](NC(=O)[C@H](Cc1ccccc1)NC(=O)[C@H](CC(=O)O)NC(=O)[C@H](CCCNC(=N)N)NC(=O)[C@H](C)NC(=O)[C@H](C)NC(=O)[C@H](CCCCNC(=O)COCCOCCNC(=O)COCCOCCNC(=O)CC[C@H](NC(=O)CCCCCCCCCCCCCCCCCCC(=O)O)C(=O)O)NC(=O)[C@@H](NC(=O)[C@H](CC(=O)O)NC(=O)[C@H](CC(C)C)NC(=O)[C@](C)(Cc1ccccc1)NC(=O)[C@H](CCCCN)NC(=O)[C@H](CO)NC(=O)[C@@H](NC(=O)[C@H](CC(=O)O)NC(=O)[C@H](CO)NC(=O)[C@@H](NC(=O)[C@H](Cc1ccccc1)NC(=O)[C@@H](NC(=O)CNC(=O)[C@H](CCC(N)=O)NC(=O)C(C)(C)NC(=O)[C@@H](N)Cc1c[nH]cn1)[C@@H](C)O)[C@@H](C)O)C(C)C)[C@@H](C)O)C(C)C)C(=O)N[C@@H](CC(C)C)C(=O)N[C@@H](CCC(=O)O)C(=O)NC(C)(C)C(=O)NCC(N)=O` [Peptide 515] (H-H[Aib]QGTFTSDVSK[αMeF]LDTK([AEEA-AEEA-γGlu-C20 diacid])AARDFVQWLLE[Aib]G-NH2; N-terminus assumed), in assay [1], the EC50 stood at 0.297 nM and the “% Relative Potency Ratio” value came to 17.7. The 50% effective concentration (EC50) in assay [2] amounted to 2.66 nM.

`CC(C)C[C@H](NC(=O)[C@H](CC(C)C)NC(=O)[C@H](Cc1c[nH]c2ccccc12)NC(=O)[C@H](CCCNC(=N)N)NC(=O)[C@@H](NC(=O)[C@H](Cc1ccccc1)NC(=O)[C@H](CC(=O)O)NC(=O)[C@H](CCC(N)=O)NC(=O)[C@H](C)NC(=O)[C@H](CCCNC(=N)N)NC(=O)[C@H](CCCCNC(=O)COCCOCCNC(=O)COCCOCCNC(=O)CC[C@H](NC(=O)CCCCCCCCCCCCCCCCCCC(=O)O)C(=O)O)NC(=O)[C@H](CO)NC(=O)[C@H](CCC(=O)O)NC(=O)[C@H](CC(C)C)NC(=O)[C@](C)(Cc1ccccc1)NC(=O)[C@H](CCCCN)NC(=O)[C@H](CO)NC(=O)[C@@H](NC(=O)[C@H](CC(=O)O)NC(=O)[C@H](CO)NC(=O)[C@@H](NC(=O)[C@H](Cc1ccccc1)NC(=O)[C@@H](NC(=O)CNC(=O)[C@H](CCC(N)=O)NC(=O)C(C)(C)NC(=O)[C@@H](N)Cc1c[nH]cn1)[C@@H](C)O)[C@@H](C)O)C(C)C)C(C)C)C(=O)N[C@@H](C)C(=O)NC(C)(C)C(=O)NCC(N)=O` [Peptide 516] (H-H[Aib]QGTFTSDVSK[αMeF]LESK([AEEA-AEEA-γGlu-C20 diacid])RAQDFVRWLLA[Aib]G-NH2; N-terminus assumed): the EC50 in assay [1] was found to be 0.137 nM; in assay [2] it was 0.785 nM. In addition, the “% Relative Potency Ratio” value in assay [1] amounted to 11.3.

Values taken from patent US20250353891A1 (MEDIMMUNE LIMITED, priority 2022, published 2025).
